Assay results from article PMC12453121, “The combined effects of tick defensin persulcatusin with conventional antibiotics and antimicrobial proteins/peptides against Staphylococcus aureus” (Microbiology, 2025).
Like-named read-outs stand apart in the source and are kept apart here. Where no end group is shown, it is not given here.

How the values were obtained:
S. aureus ATCC 29213 [1] = conditions: for combined effect with IP (interpretation of FICI): named agent combined with IP, S. aureus ATCC 29213
Experimental: A checkerboard assay was performed to evaluate the combined effect of IP and conventional antibiotics using the broth microdilution method [3031] with a final inoculum concentration of 5×10^5 c.f.u. ml^−1. Bacterial cells cultured in MHB at 30 °C were suspended in MHB or cation-adjusted MHB (caMHB) for daptomycin treatment. Bacterial suspensions were dispensed into 96-well round polypropylene plates (Watson Bio Lab, Tokyo, Japan) at an inoculum concentration of 5.0×10^5 c.f.u. ml^−1. […] After incubation at 30 °C, the OD of each well was measured using a microplate reader (MTP-310; Corona Electric Co., Ltd., Ibaraki, Japan) at 660 nm (OD660). […] The fractional inhibitory concentration (FIC) was calculated as the MIC of drug A in combination with drug B divided by drug A alone. The FIC index (FICI) was calculated as the sum of each FIC, and the lowest FICI for each combination was interpreted as follows: FICI of <0.5 was defined as synergy, FICI of ≥0.5 but <1 was defined as partial synergy, FICI of ≥1 but <4 was defined as an additive effect or irrelevant and FICI of ≥4 was defined as antagonistic.

S. aureus ATCC 29213 [2] = experiment: Killing kinetic assay of IP or vancomycin in growth and non-growth states; type: cell-based, Staphylococcus aureus; conditions: 30 °C; for survival rate in the non-growth state: 1×10^8 c.f.u./ml, within 0.5 h then constant, % of c.f.u./ml at 0 h, triplicate; for survival rate in the non-growth state / time after which bactericidal activity / reduction of survival rate appeared in growth cells: IP 32 µg/ml or vancomycin 16 µg/ml (8×MIC); for time after which bactericidal activity / reduction of survival rate appeared in growth cells: growth state (TSB, LB Lennox or MHB)
Experimental: To study the antimicrobial effect of IP on S. aureus cells in both the growth and non-growth states, a killing kinetic assay of IP against S. aureus incubated in nutrient medium was performed as per the method described below or in the physiological buffer (PBS). Bacterial cells grown in TSB for ~24 h were adjusted to 1×10^8 c.f.u. ml^−1 in TSB, LB Lennox broth, MHB or PBS with 32 µg ml^−1 IP or 16 µg ml^−1 vancomycin, as control for antibiotic inhibited cell wall biosynthesis via interaction with lipid II, followed by incubation at 30 ℃ for a further 0.5, 1, 2, 4, 6 and 8 h. Bacterial cells were then serially diluted with sterile PBS, plated on TSA and incubated overnight at 37 °C. Colony counts were then determined, and c.f.u. ml^−1 was calculated.

S. aureus [3] = system: S. aureus; parameters: method as in PMID 22705395; conditions: cited from earlier work
S. aureus ATCC 29213 [4] = experiment: Killing kinetic assay of daptomycin with or without IP pretreatment; type: cell-based, Staphylococcus aureus; conditions: c.f.u. count, triplicate
Experimental: To examine the influence of S. aureus pretreated with IP on the efficacy of daptomycin against bacterial cells, a killing kinetic assay based on a modification of Grein’s method was conducted. Bacterial cells grown in MHB to the exponential growth phase were incubated with 16 µg ml^−1 IP (8×MIC) at 37 °C. Since IP interacts with the cell surface of S. aureus, causing depolarization within 15 min after incubation, the duration of the pretreatment with IP was set to […]. The cells were then centrifuged (5,000 g, 5 min, 25 °C), and the supernatant was discarded to remove IP. Pretreated cells were resuspended in caMHB with or without 10 µg ml^−1 daptomycin (10×MIC) and then incubated at 37 °C for 0, 15, 30, 60 and 120 min. The bacterial cells were then serially diluted with sterile PBS, and each dilution was plated on TSA plates. The colonies were left to incubate at 37 °C and were subsequently counted.

S. aureus [5] = conditions: IP on cell surface of S. aureus; cited from earlier work
[6] = named agent combined with IP (0.25–16 µg/ml), checkerboard broth microdilution in MHB (caMHB for daptomycin), 5×10^5 c.f.u./ml, 30 °C, no growth = OD660 <0.05, lowest FICI

CN[C@H](CC(C)C)C(=O)N[C@H]1C(=O)N[C@@H](CC(N)=O)C(=O)N[C@H]2C(=O)N[C@H]3C(=O)N[C@H](C(=O)N[C@H](C(=O)O)c4cc(O)cc(O)c4-c4cc3ccc4O)[C@H](O)c3ccc(c(Cl)c3)Oc3cc2cc(c3O[C@@H]2O[C@H](CO)[C@@H](O)[C@H](O)[C@H]2O[C@H]2C[C@](C)(N)[C@H](O)[C@H](C)O2)Oc2ccc(cc2Cl)[C@H]1O [vancomycin, Vancomycin]
FICI (fractional inhibitory concentration index) (S. aureus ATCC 29213 [1]): 2.0
combined effect with IP (interpretation of FICI) (S. aureus ATCC 29213 [1]; checkerboard): additive or irrelevant
survival rate in the non-growth state (S. aureus ATCC 29213 [2]; PBS): no reduction
time after which bactericidal activity / reduction of survival rate appeared in growth cells (S. aureus ATCC 29213 [2]): 8 h

areucin-1: antimicrobial peptide isolated from the marine polychaete lugworm Arenicola marina (printed arenicin-1 in b7) (RWCVYAYVRVRGVLVRYRRCW; ends and bridges not checked; cysteine pairing not given here; UniProt Q5SC60 182-202, looked up)
FICI with chloramphenicol (S. aureus [3]; areucin-1 combined with chloramphenicol against S. aureus): 0.5
FICI with erythromycin (S. aureus [3]; areucin-1 combined with erythromycin against S. aureus): 0.375

CCCCCCCCCC(=O)N[C@@H](Cc1c[nH]c2ccccc12)C(=O)N[C@H](CC(N)=O)C(=O)N[C@@H](CC(=O)O)C(=O)N[C@@H]1C(=O)NCC(=O)N[C@@H](CCCN)C(=O)N[C@@H](CC(=O)O)C(=O)N[C@H](C)C(=O)N[C@@H](CC(=O)O)C(=O)NCC(=O)N[C@H](CO)C(=O)N[C@@H]([C@H](C)CC(=O)O)C(=O)N[C@@H](CC(=O)c2ccccc2N)C(=O)O[C@@H]1C [daptomycin, Daptomycin]
FICI (fractional inhibitory concentration index) (S. aureus ATCC 29213 [1]): exceeded 2.0
MIC in the presence of sublethal concentrations of IP compared with absence of IP (S. aureus ATCC 29213 [1]; IP 0.25 to 1 µg/ml for nisin, 0.25 to 4 µg/ml for daptomycin, checkerboard): higher
combined effect with IP (interpretation of FICI) (S. aureus ATCC 29213 [1]; checkerboard): additive, irrelevant or antagonistic
time to significant reduction in bacterial cells (bactericidal activity) (S. aureus ATCC 29213 [4]; daptomycin 10 µg/ml (10×MIC), caMHB, 37 °C, no pretreatment, P<0.05): ≤ 2 h

CN(C)[C@@H]1C(O)=C(C(N)=O)C(=O)[C@@]2(O)C(O)=C3C(=O)c4c(O)cccc4[C@@](C)(O)[C@H]3C[C@@H]12 [tetracycline, Tetracycline]
FICI (fractional inhibitory concentration index) (S. aureus ATCC 29213 [1]; [6]): 0.75
combined effect with IP (interpretation of FICI) (S. aureus ATCC 29213 [1]; checkerboard): Partial synergistic

CC[C@H]1OC(=O)[C@H](C)[C@@H](O[C@H]2C[C@@](C)(OC)[C@@H](O)[C@H](C)O2)[C@H](C)[C@@H](O[C@@H]2O[C@H](C)C[C@H](N(C)C)[C@H]2O)[C@](C)(O)C[C@@H](C)C(=O)[C@H](C)[C@@H](O)[C@]1(C)O [erythromycin, Erythromycin]
FICI (fractional inhibitory concentration index) (S. aureus ATCC 29213 [1]; [6]): 2.0
combined effect with IP (interpretation of FICI) (S. aureus ATCC 29213 [1]; checkerboard): additive or irrelevant

Lysozyme
combined effect with IP (interpretation of FICI) (S. aureus ATCC 29213 [1]; checkerboard): Partial synergistic

GFGCPFNQGACHRHCRSIGRRGGYCAGLFKQTCTCYSR (disulfide (positions not given here)) [IP, Persulcatusin, Tick defensin isolated from the hard tick Ixodes persulcatus, 38 aa, chemically synthesized, disulphide bridges formed]
effect of short-term IP pretreatment on killing by daptomycin (S. aureus ATCC 29213 [4]; IP 16 µg/ml (8×MIC) for 5 min at 37 °C, removed, then daptomycin 10 µg/ml in caMHB): reduced the bactericidal activity of daptomycin
survival rate in the non-growth state (S. aureus ATCC 29213 [2]; PBS): ~ 70%
time to bactericidal activity in PBS (non-growth state) (S. aureus ATCC 29213 [2]; PBS, IP 8×MIC, survival constant thereafter): ≤ 0.5 h
time after which bactericidal activity / reduction of survival rate appeared in growth cells (S. aureus ATCC 29213 [2]): 2 h
time to depolarization after incubation (S. aureus [5]): ≤ 15 min
